Data reported in ChEMBL document CHEMBL1201862, “PubChem BioAssay data set” (2004).
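Grown in 96-well plates, cells were treated for 48 hours with each compound at five concentrations. Insufficient inhibition: endpoint recorded as highest concentration tested. Abbreviation: GI50, concentration required for 50% inhibition of growth.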 The source made the active and inactive calls. No stated cut-off is given here; in the data, active = GI50 up to about 1.1 µM and inactive = higher.

Columns and labels:
Experiment in all cases: inhibition of tumour cell growth, NCI panel, 48 h
SN12C = system: SN12C
SK-MEL-5 = system: SK-MEL-5
SNB-19 = system: SNB-19
OVCAR-4 = system: OVCAR-4
SNB-75 = system: SNB-75
MDA-MB-435 = system: MDA-MB-435
HT-29 = system: HT-29
UO-31 = system: UO-31
786-0 = system: 786-0
HL-60 = system: HL-60
MOLT-4 = system: MOLT-4
RXF 393 = system: RXF 393
MDA-MB-231 = system: MDA-MB-231
SF-268 = system: SF-268
EKVX = system: EKVX
Malme-3M = system: Malme-3M
M14 = system: M14
HOP-62 = system: HOP-62
OVCAR-5 = system: OVCAR-5
NCI-H23 = system: NCI-H23
DU-145 = system: DU-145
SW-620 = system: SW-620
MCF7 = system: MCF7
U-251 = system: U-251
SK-MEL-2 = system: SK-MEL-2
CCRF-CEM = system: CCRF-CEM
COLO 205 = system: COLO 205
A498 = system: A498
NCI/ADR-RES = system: NCI/ADR-RES
OVCAR-3 = system: OVCAR-3
UACC-257 = system: UACC-257
HCT-116 = system: HCT-116
CAKI-1 = system: CAKI-1
TK-10 = system: TK-10
KM12 = system: KM12
K562 = system: K562
NCI-H522 = system: NCI-H522
HCC 2998 = system: HCC 2998
SK-MEL-28 = system: SK-MEL-28
HOP-92 = system: HOP-92
NCI-H460 = system: NCI-H460
IGROV-1 = system: IGROV-1
NCI-H226 = system: NCI-H226
SR = system: SR
LOX IMVI = system: LOX IMVI
ACHN = system: ACHN
A549 = system: A549
SF-295 = system: SF-295
RPMI-8226 = system: RPMI-8226
UACC-62 = system: UACC-62
OVCAR-8 = system: OVCAR-8
T47D = system: T47D
Hs-578T = system: Hs-578T
PC-3 = system: PC-3
SF-539 = system: SF-539
SK-OV-3 = system: SK-OV-3
MDA-N = system: MDA-N
HCT-15 = system: HCT-15
BT-549 = system: BT-549

How did the GI50 (SN12C) turn out when COc1c2c3c4c(c(OC)c(=O)c5c(O)cc(OC)c(c6c(OC)cc(O)c(c1=O)c63)c54)C(C(C)O)C2C(C)=O (configuration not stated) was run?
Its GI50 is 485 nM (active).

What about the GI50 (SK-MEL-5) of the same compound?
The GI50 was 138 nM (active).

What about the GI50 (SNB-19) of the same compound?
The GI50 was 264 nM (active).

What about the GI50 (OVCAR-4) of the same compound?
Its GI50 is 460 nM (active).

And the GI50 (SNB-75)?
Its GI50 is 256 nM (active).

What about the GI50 (MDA-MB-435) of the same compound?
Its GI50 is 295 nM (active).

And the GI50 (HT-29)?
The GI50 was 470 nM (active).

What about the GI50 (UO-31) of the same compound?
Its GI50 is 325 nM (active).

What about the GI50 (786-0) of the same compound?
The GI50 was 610 nM (active).

What about the GI50 (HL-60) of the same compound?
The GI50 was 334 nM (active).

And the GI50 (MOLT-4)?
The GI50 was 279 nM (active).

What about the GI50 (RXF 393) of the same compound?
The GI50 was 60 nM (active).

What about the GI50 (MDA-MB-231) of the same compound?
The GI50 was 741 nM (active).

What about the GI50 (SF-268) of the same compound?
The GI50 was 492 nM (active).

And the GI50 (EKVX)?
The GI50 was 482 nM (active).

What about the GI50 (Malme-3M) of the same compound?
The GI50 was 448 nM (active).

What about the GI50 (M14) of the same compound?
Its GI50 is 288 nM (active).

What about the GI50 (HOP-62) of the same compound?
The GI50 was 177 nM (active).

What about the GI50 (OVCAR-5) of the same compound?
The GI50 was 603 nM (active).

What about the GI50 (NCI-H23) of the same compound?
The GI50 was 331 nM (active).

What about the GI50 (DU-145) of the same compound?
Its GI50 is 641 nM (active).

What about the GI50 (SW-620) of the same compound?
The GI50 was 395 nM (active).

What about the GI50 (MCF7) of the same compound?
The GI50 was 603 nM (active).

What about the GI50 (U-251) of the same compound?
Its GI50 is 299 nM (active).

What about the GI50 (SK-MEL-2) of the same compound?
The GI50 was 738 nM (active).

And the GI50 (CCRF-CEM)?
Its GI50 is 269 nM (active).

And the GI50 (COLO 205)?
The GI50 was 571 nM (active).

What about the GI50 (A498) of the same compound?
The GI50 was 628 nM (active).

And the GI50 (NCI/ADR-RES)?
Its GI50 is 296 nM (active).

What about the GI50 (OVCAR-3) of the same compound?
Its GI50 is 338 nM (active).

And the GI50 (UACC-257)?
The GI50 was 521 nM (active).

And the GI50 (HCT-116)?
Its GI50 is 385 nM (active).

What about the GI50 (CAKI-1) of the same compound?
The GI50 was 279 nM (active).

And the GI50 (TK-10)?
The GI50 was 581 nM (active).

What about the GI50 (KM12) of the same compound?
The GI50 was 431 nM (active).

And the GI50 (K562)?
Its GI50 is 234 nM (active).

And the GI50 (NCI-H522)?
The GI50 was 171 nM (active).

What about the GI50 (HCC 2998) of the same compound?
The GI50 was 481 nM (active).

What about the GI50 (SK-MEL-28) of the same compound?
The GI50 was 189 nM (active).

What about the GI50 (HOP-92) of the same compound?
Its GI50 is 225 nM (active).

And the GI50 (NCI-H460)?
Its GI50 is 226 nM (active).

And the GI50 (IGROV-1)?
Its GI50 is 445 nM (active).

What about the GI50 (NCI-H226) of the same compound?
Its GI50 is 528 nM (active).

And the GI50 (SR)?
The GI50 was 178 nM (active).

What about the GI50 (LOX IMVI) of the same compound?
The GI50 was 244 nM (active).

And the GI50 (ACHN)?
The GI50 was 497 nM (active).

And the GI50 (A549)?
The GI50 was 353 nM (active).

What about the GI50 (SF-295) of the same compound?
The GI50 was 256 nM (active).

And the GI50 (RPMI-8226)?
Its GI50 is 513 nM (active).

What about the GI50 (UACC-62) of the same compound?
Its GI50 is 483 nM (active).

What about the GI50 (OVCAR-8) of the same compound?
Its GI50 is 321 nM (active).

What about the GI50 (T47D) of the same compound?
Its GI50 is 454 nM (active).

And the GI50 (Hs-578T)?
Its GI50 is 593 nM (active).

And the GI50 (PC-3)?
The GI50 was 260 nM (active).

And the GI50 (SF-539)?
Its GI50 is 296 nM (active).

And the GI50 (SK-OV-3)?
Its GI50 is 826 nM (active).

What about the GI50 (MDA-N) of the same compound?
Its GI50 is 282 nM (active).

And the GI50 (HCT-15)?
The GI50 was 652 nM.

CCN(C(=O)N[C@H](C(=O)N[C@@H](CSC)C(=O)N[C@@H](C)C(=O)OC)C(C)C)c1ccccc1 was tested. Which GI50 (SN12C) did it give?
Its GI50 is 17900 nM (inactive).

And the GI50 (SK-MEL-5)?
Its GI50 is 16700 nM (inactive).

What about the GI50 (SNB-19) of the same compound?
Its GI50 is 19300 nM (inactive).

What about the GI50 (OVCAR-4) of the same compound?
Its GI50 is 20000 nM (inactive).

What about the GI50 (BT-549) of the same compound?
Its GI50 is 18100 nM (inactive).

And the GI50 (SNB-75)?
Its GI50 is 12400 nM (inactive).

What about the GI50 (MDA-MB-435) of the same compound?
Its GI50 is 14700 nM (inactive).

And the GI50 (HT-29)?
The GI50 was 13200 nM (inactive).

What about the GI50 (UO-31) of the same compound?
Its GI50 is 17500 nM (inactive).

What about the GI50 (786-0) of the same compound?
The GI50 was 17200 nM (inactive).

And the GI50 (MOLT-4)?
The GI50 was 8300 nM (inactive).

And the GI50 (RXF 393)?
Its GI50 is 17700 nM (inactive).

What about the GI50 (MDA-MB-231) of the same compound?
The GI50 was 15100 nM (inactive).

What about the GI50 (EKVX) of the same compound?
Its GI50 is 13500 nM (inactive).

What about the GI50 (Malme-3M) of the same compound?
Its GI50 is 12800 nM (inactive).

And the GI50 (M14)?
Its GI50 is 14200 nM (inactive).

And the GI50 (HOP-62)?
The GI50 was 19800 nM (inactive).

And the GI50 (OVCAR-5)?
Its GI50 is 15500 nM (inactive).

And the GI50 (NCI-H23)?
The GI50 was 17800 nM (inactive).

And the GI50 (DU-145)?
Its GI50 is 17400 nM (inactive).

And the GI50 (SW-620)?
Its GI50 is 14600 nM (inactive).

And the GI50 (MCF7)?
The GI50 was 16100 nM (inactive).

What about the GI50 (U-251) of the same compound?
The GI50 was 15900 nM (inactive).

And the GI50 (SK-MEL-2)?
Its GI50 is 20300 nM (inactive).

What about the GI50 (CCRF-CEM) of the same compound?
Its GI50 is 2940 nM (inactive).

And the GI50 (COLO 205)?
The GI50 was 17900 nM (inactive).

And the GI50 (NCI/ADR-RES)?
The GI50 was > 100000 nM (inactive).

What about the GI50 (OVCAR-3) of the same compound?
Its GI50 is 20000 nM (inactive).

What about the GI50 (UACC-257) of the same compound?
The GI50 was 12400 nM (inactive).

And the GI50 (HCT-116)?
Its GI50 is 16700 nM (inactive).

And the GI50 (CAKI-1)?
The GI50 was 20000 nM (inactive).

What about the GI50 (TK-10) of the same compound?
Its GI50 is 13600 nM (inactive).

What about the GI50 (KM12) of the same compound?
The GI50 was 15300 nM (inactive).

What about the GI50 (K562) of the same compound?
The GI50 was 13100 nM (inactive).

What about the GI50 (NCI-H522) of the same compound?
The GI50 was 10200 nM (inactive).

What about the GI50 (HCC 2998) of the same compound?
Its GI50 is 19600 nM (inactive).

What about the GI50 (SK-MEL-28) of the same compound?
The GI50 was 15300 nM (inactive).

And the GI50 (HOP-92)?
The GI50 was 12800 nM (inactive).

What about the GI50 (NCI-H460) of the same compound?
The GI50 was 15800 nM (inactive).

And the GI50 (IGROV-1)?
The GI50 was 10400 nM (inactive).

And the GI50 (NCI-H226)?
The GI50 was 16300 nM (inactive).

What about the GI50 (SR) of the same compound?
The GI50 was 3830 nM (inactive).

What about the GI50 (LOX IMVI) of the same compound?
Its GI50 is 10400 nM (inactive).

And the GI50 (ACHN)?
The GI50 was 15600 nM (inactive).

And the GI50 (A549)?
The GI50 was 23600 nM (inactive).

And the GI50 (SF-295)?
The GI50 was 17900 nM (inactive).

And the GI50 (UACC-62)?
The GI50 was 13800 nM (inactive).

And the GI50 (OVCAR-8)?
Its GI50 is 17200 nM (inactive).

What about the GI50 (T47D) of the same compound?
The GI50 was 26400 nM (inactive).

What about the GI50 (PC-3) of the same compound?
The GI50 was 16900 nM (inactive).

And the GI50 (SF-539)?
Its GI50 is 19600 nM (inactive).

What about the GI50 (SK-OV-3) of the same compound?
The GI50 was 15000 nM (inactive).

And the GI50 (MDA-N)?
The GI50 was 17300 nM (inactive).

What about the GI50 (HCT-15) of the same compound?
Its GI50 is 17800 nM.
